Test results as given in patent publication US20100130579A1, “CANCER THERAPY” (Georgetown University, priority 2006, published 2010).
“Also recorded” adds a separate entry of the source.

How the values were obtained:
Type in all cases: cell-based
cyclin D1 = test: Cyclin D1 expression after KED compound; details: as a result of RASSF1A induction
Method: (§1) Anticancer effects and activation of a tumor suppressor gene, RASSF1A) KED-3-63-1, KED 3-63-2 and KED 3-81 were assessed.

DNA synthesis = test: Inhibition of DNA synthesis / anticancer effects of KED compounds; details: in the assay used (inhibition of DNA synthesis, FIGS. 7A-7D)
Method: FIGS. 7A-7D. FIGS. 7A-7D show the dose-dependent inhibition of DNA synthesis with KED compounds.
as §1

RASSF1A = test: Activation of tumor suppressor gene RASSF1A by KED compounds
Method: as §1

SMILES	cyclin D1 expression (cyclin D1)	anticancer effects (DNA synthesis)	induction of RASSF1A (RASSF1A)
COc1ccc2c(c1)[nH]c1c(C)c3c(cc12)C=CC(C)(CCC=C(C)C)O3 (centres unmarked) [KED-3-63-1]	down-regulated	have anti-cancer effects; also recorded: have anticancer effects	induced RASSF1A
COc1ccc2c(c1)[nH]c1c(C)c(OCc3ccccc3)ccc12 [KED-3-63-2]		does not; also recorded: no anti-cancer effects	
COc1ccc2c(c1)[nH]c1cc(OCc3ccccc3)c(C)cc12 [KED-3-81]		have anti-cancer effects; also recorded: have anticancer effects	
